Laboratory results published in patent US20120282187A1 (BOEHRINGER INGELHEIM INTERNATIONAL GMBH, priority 2008, published 2012).
Read-outs that look alike come from different tables or passages of the source.

Legend:
[1] = Clinical pharmacokinetics and pharmacodynamics of dabigatran etexilate; assay type: in vivo
Text: Ezekowitz M D, et al., Dabigatran with or without concomitant aspirin compared with warfarin alone in patients with nonvalvular atrial fibrillation (PETRO study), Am. […] The PETRO study is described below.
As noted above, management of warfarin therapy is complex, and failure to adequately monitor patients is associated with risk. […] It also interacts with many common foods, drugs and alcohol which alter its therapeutic effect, putting patients at risk of either a bleeding or thrombotic event. Therefore, warfarin therapy requires careful individualized dosing and frequent monitoring. The significant limitations of VKAs have created a need for an oral anticoagulant with a rapid onset of action, minimal drug interactions, and a predictable anticoagulation effect that needs no monitoring.
Peak levels are seen within 2-3 hours of oral administration. […] Steady-state is reached within 2-3 days with a twice daily regimen. […] The remainder undergoes conjugation with glucuronic acid to form acylglucuronides which are excreted primarily in the bile.

[2] = Solid state and solubility properties; assay type: physicochemical
[3] = tested on: patients with atrial fibrillation
Procedure: The PETRO-Ex study was conducted in 52 centers in the United States, Denmark, The Netherlands, and Sweden.
PETRO-Ex began while the PETRO study was ongoing and investigators were initially kept blinded to patient treatment group until PETRO was completed. Unblinding investigators to patient treatment was possible thereafter.
Data were summarized descriptively; no hypothesis was to be tested. Events were analyzed on the basis of the treatment at onset. Incidences were reported as of patients with events as well as normalized to 100 patient-years on the respective treatment.
Patients who were down titrated to 50 mg q.d. based on a glomerular filtration rate≦50 mL/min during PETRO were excluded from the long-term trial; patients down-titrated in other dose levels remained on the q.d. treatment at that dose.
The total exposure reflects both trials, PETRO and PETRO-Ex, together.

CCCCCCOC(=O)NC(=N)c1ccc(NCc2nc3cc(C(=O)N(CCC(=O)OCC)c4ccccn4)ccc3n2C)cc1 [Dabigatran etexilate, 1-methyl-2-[N-[4-(N-n-hexyloxycarbonylamidino)phenyl]aminomethyl]benzimidazol-5-ylcarboxylic acid-N-(2-pyridyl)-N-(2-ethoxycarbonylethyl)amides]
effect of oral strong P-gp inhibitors verapamil, quinidine or amiodarone on dabigatran plasma concentrations ([1]; concomitant with dabigatran etexilate): elevate dabigatran plasma concentrations | food interactions ([1]; in vivo): no food interactions | onset of anticoagulant effect ([1]; time after dosing): one | hygroscopicity [2]: hygroscopic | solubility in water [2]: sparingly soluble in water | ALT or AST >2xULN, number ([3]; 50 mg b.i.d.): 0 | ALT or AST >3xULN and Bili >2xULN within 30 days, number ([3]; 50 mg b.i.d.): 0 | ALT or AST >3xULN, number ([3]; 50 mg b.i.d.): 0 | ALT or AST >5xULN, number ([3]; 50 mg b.i.d.): 0 | Adverse Events leading to premature discontinuation, number ([3]; 50 mg b.i.d.): 5 | Adverse Events leading to premature discontinuation, rate ([3]; 50 mg b.i.d.): 21.3 per 100 patient-years | MI, number ([3]; 50 mg b.i.d.): 0 | Major Bleeds with aspirin, number ([3]; 50 mg b.i.d.): 0 | Major Bleeds without aspirin, number ([3]; 50 mg b.i.d.): 0 | Major Bleeds, number ([3]; 50 mg b.i.d.): 0 | Other MACE, number ([3]; 50 mg b.i.d.): 2 | Stroke and Systemic Thromboembolism, number ([3]; 50 mg b.i.d.): 3 | TIA, number ([3]; 50 mg b.i.d.): 0 | ALT or AST >2xULN, number ([3]; 50 mg q.d.): 0 | ALT or AST >3xULN and Bili >2xULN within 30 days, number ([3]; 50 mg q.d.): 0 | ALT or AST >3xULN, number ([3]; 50 mg q.d.): 0 | ALT or AST >5xULN, number ([3]; 50 mg q.d.): 0 | Adverse Events leading to premature discontinuation, number ([3]; 50 mg q.d.): 0 | MI, number ([3]; 50 mg q.d.): 0 | Major Bleeds with aspirin, number ([3]; 50 mg q.d.): 0 | Major Bleeds without aspirin, number ([3]; 50 mg q.d.): 0 | Major Bleeds, number ([3]; 50 mg q.d.): 0 | Other MACE, number ([3]; 50 mg q.d.): 0 | Stroke and Systemic Thromboembolism, number ([3]; 50 mg q.d.): 0 | TIA, number ([3]; 50 mg q.d.): 0 | ALT or AST >2xULN, number ([3]; 150 mg b.i.d.): 21 | ALT or AST >2xULN, rate ([3]; 150 mg b.i.d.): 3.1 per 100 patient-years | ALT or AST >3xULN and Bili >2xULN within 30 days, number ([3]; 150 mg b.i.d.): 3 | ALT or AST >3xULN and Bili >2xULN within 30 days, rate ([3]; 150 mg b.i.d.): 0.4 per 100 patient-years | ALT or AST >3xULN, number ([3]; 150 mg b.i.d.): 13 | ALT or AST >3xULN, rate ([3]; 150 mg b.i.d.): 1.9 per 100 patient-years | ALT or AST >5xULN, number ([3]; 150 mg b.i.d.): 7 | ALT or AST >5xULN, rate ([3]; 150 mg b.i.d.): 1.0 per 100 patient-years | Adverse Events leading to premature discontinuation, number ([3]; 150 mg b.i.d.): 67 | Adverse Events leading to premature discontinuation, rate ([3]; 150 mg b.i.d.): 9.8 per 100 patient-years | MI, number ([3]; 150 mg b.i.d.): 6 | Major Bleeds with aspirin, number ([3]; 150 mg b.i.d.): 11 | Major Bleeds with aspirin, rate ([3]; 150 mg b.i.d.): 8.7 per 100 patient-years | Major Bleeds without aspirin, number ([3]; 150 mg b.i.d.): 18 | Major Bleeds without aspirin, rate ([3]; 150 mg b.i.d.): 3.2 per 100 patient-years | Major Bleeds, number ([3]; 150 mg b.i.d.): 29 | Major Bleeds, rate ([3]; 150 mg b.i.d.): 4.2 per 100 patient-years | Major bleeding events ([3]; 150 mg b.i.d.): 4.2 % per year | Other MACE, number ([3]; 150 mg b.i.d.): 7 | Stroke and Systemic Thromboembolism, number ([3]; 150 mg b.i.d.): 7 | TIA, number ([3]; 150 mg b.i.d.): 1 | fatal major bleeds, number ([3]; 150 mg b.i.d.): 4 | ALT or AST >2xULN, number ([3]; 150 mg q.d.): 2 | ALT or AST >2xULN, rate ([3]; 150 mg q.d.): 3.4 per 100 patient-years | ALT or AST >3xULN and Bili >2xULN within 30 days, number ([3]; 150 mg q.d.): 0 | ALT or AST >3xULN, number ([3]; 150 mg q.d.): 0 | ALT or AST >5xULN, number ([3]; 150 mg q.d.): 0 | Adverse Events leading to premature discontinuation, number ([3]; 150 mg q.d.): 8 | Adverse Events leading to premature discontinuation, rate ([3]; 150 mg q.d.): 13.7 per 100 patient-years | MI, number ([3]; 150 mg q.d.): 0 | Major Bleeds with aspirin, number ([3]; 150 mg q.d.): 0 | Major Bleeds without aspirin, number ([3]; 150 mg q.d.): 3 | Major Bleeds without aspirin, rate ([3]; 150 mg q.d.): 6.5 per 100 patient-years | Major Bleeds, number ([3]; 150 mg q.d.): 3 | Major Bleeds, rate ([3]; 150 mg q.d.): 5.1 per 100 patient-years | Other MACE, number ([3]; 150 mg q.d.): 0 | Stroke and Systemic Thromboembolism, number ([3]; 150 mg q.d.): 3 | TIA, number ([3]; 150 mg q.d.): 0 | ALT or AST >2xULN, number ([3]; 300 mg b.i.d.): 4 | ALT or AST >2xULN, rate ([3]; 300 mg b.i.d.): 4.9 per 100 patient-years | ALT or AST >3xULN and Bili >2xULN within 30 days, number ([3]; 300 mg b.i.d.): 0 | ALT or AST >3xULN, number ([3]; 300 mg b.i.d.): 2 | ALT or AST >3xULN, rate ([3]; 300 mg b.i.d.): 2.4 per 100 patient-years | ALT or AST >5xULN, number ([3]; 300 mg b.i.d.): 1 | ALT or AST >5xULN, rate ([3]; 300 mg b.i.d.): 1.2 per 100 patient-years | Adverse Events leading to premature discontinuation, number ([3]; 300 mg b.i.d.): 21 | Adverse Events leading to premature discontinuation, rate ([3]; 300 mg b.i.d.): 25.6 per 100 patient-years | MI, number ([3]; 300 mg b.i.d.): 0 | Major Bleeds with aspirin, number ([3]; 300 mg b.i.d.): 6 | Major Bleeds with aspirin, rate ([3]; 300 mg b.i.d.): 32.7 per 100 patient-years
